The target of assay [1] is T1, HCV polymerase H544 1a 3X (UniProt P27958).
T1 construct: fused on or other part: 6 His tag at the C-terminus, for the BK (1b) enzyme
The assay can be described thus: Assay of enzyme (HCV polymerase) inhibitory activity, H544 1a 3X. Conditions: 25° C., 90 min, [5,6-3H]UTP incorporation, read-out: H544 1a 3X IC50. In kind it is biochemical.

The target of assay [2] is T2, HCV polymerase H544 1b 3X (Hepatitis C virus genotype 1b, UniProt P26663).
T2 construct: a region encoding NS5B (J Virol 1991 March, 65(3), 1105-13, 544 amino acids after deletion of 47 amino acids on the C-terminal); 6 His (C); made in house; host or cells: Escherichia coli
T2 sequence (P26663 2420-2963): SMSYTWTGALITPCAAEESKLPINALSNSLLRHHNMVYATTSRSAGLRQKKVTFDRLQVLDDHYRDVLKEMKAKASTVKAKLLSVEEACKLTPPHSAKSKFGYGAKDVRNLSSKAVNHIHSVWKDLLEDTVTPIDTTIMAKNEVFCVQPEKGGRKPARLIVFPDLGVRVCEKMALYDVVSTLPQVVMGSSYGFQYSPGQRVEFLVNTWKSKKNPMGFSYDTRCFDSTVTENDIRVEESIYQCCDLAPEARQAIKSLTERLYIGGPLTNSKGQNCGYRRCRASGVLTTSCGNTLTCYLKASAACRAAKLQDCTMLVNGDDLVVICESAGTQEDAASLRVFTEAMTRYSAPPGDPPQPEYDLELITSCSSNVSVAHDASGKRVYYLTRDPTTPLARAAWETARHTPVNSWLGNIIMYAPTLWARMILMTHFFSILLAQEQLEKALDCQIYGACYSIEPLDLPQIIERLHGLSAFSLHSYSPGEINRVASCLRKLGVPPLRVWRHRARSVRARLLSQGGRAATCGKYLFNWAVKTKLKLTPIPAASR
The assay is described as follows: Assay of enzyme (HCV polymerase) inhibitory activity, H544 1b 3X. In kind it is biochemical, HCV BK strain. The source says:
The evaluation of the HCV polymerase inhibitory activity of the compound of the present invention is explained in the following. This polymerase is an enzyme coded for by the non-structural protein region called NS5B on the genome RNA of HCV (EMBO J., 15:12-22, 1996).
Using, as a template, a cDNA clone corresponding to the full length genome RNA of HCV BK strain obtained from the blood of a patient with hepatitis C, a region encoding NS5B (J Virol 1991 March, 65(3), 1105-13, 544 amino acids after deletion of 47 amino acids on the C-terminal) was amplified by PCR. The objective gene was prepared by adding a 6 His tag {base pair encoding 6 continuous histidine (His)} to the 3′ end thereof and transformed to Escherichia coli. The Escherichia coli capable of producing the objective protein was cultured. The obtained cells were suspended in a buffer solution and crushed in a microfluidizer. The supernatant was obtained by centrifugation and applied to various column chromatographys {mono-S, Sephacryl S-200 (Pharmacia)}, inclusive of metal chelate chromatography, to give a standard enzyme product.
Using a synthetic primer designed based on the sequence of HCV genomic 3′ untranslated region, a DNA fragment (148 bp) containing polyU and 3′X sequence was entirely synthesized and cloned into plasmid pBluescript SK II (+) (Stratagene). The cDNA encoding full length NS5B, which was prepared in i) above, was digested with restriction enzyme KpnI to give a cDNA fragment containing the nucleotide sequence of from the restriction enzyme cleavage site to the termination codon. This cDNA fragment was inserted into the upstream of 3′ untranslated region of the DNA in pBluescript SK II(+) and ligated. The about 450 bp inserted DNA sequence was used as a template in the preparation of substrate RNA. This plasmid was cleaved immediately after the 3′X sequence, linearized and purified by phenol-chloroform treatment and ethanol precipitation to give DNA.
RNA was synthesized (37° C., 3 hr) by run-off method using this purified DNA as a template, a promoter of pBluescript SK II(+), MEGAscript RNA synthesis kit (Ambion) and T7 RNA polymerase. DNase I was added and the mixture was incubated for 1 hr. The template DNA was removed by decomposition to give a crude RNA product. This crude product was treated with phenol-chloroform and purified by ethanol precipitation to give the objective substrate RNA.
This RNA was applied to formaldehyde denaturation agarose gel electrophoresis to confirm the quality thereof and preserved at −80° C.
A test substance (compound of the present invention) and a reaction mixture (30 μl) having the following composition were reacted at 25° C. for 90 min. 10% Trichloroacetic acid at 4° C. and 1% sodium pyrophosphate solution (150 μl) were added to this reaction mixture to stop the reaction. The reaction mixture was left standing in ice for 15 min to insolubilize RNA. This RNA was trapped on a glass filter (Whatman GF/C and the like) upon filtration by suction. This filter was washed with a solution containing 1% trichloroacetic acid and 0.1% sodium pyrophosphate, washed with 90% ethanol and dried. A liquid scintillation cocktail (Packard) was added and the radioactivity of RNA synthesized by the enzyme reaction was measured on a liquid scintillation counter.
The HCV polymerase inhibitory activity (IC50) of the compound of the present invention was calculated from the values of radioactivity of the enzyme reaction with and without the test substance.
The results are shown in Table 18, wherein each symbol means that IC50 falls within the following range.
Reaction mixture: HCV polymerase (0.5 μg/ml) obtained in i), substrate RNA (5 μg/ml) obtained in ii), ATP (50 μM), GTP (50 μM), CTP (50 μM), UTP (2 μM), [5,6-^3H] UTP (46 Ci/mmol (Amersham), 1 μCi) 20 mM Tris-HCl (pH 7.5), EDTA (1 mM), MgCl2 (5 mM), NaCl (50 mM), DTT (1 mM), BSA (0.01%)

Where a name gives a salt, the structure may show the parent alone. Where only a bound is given, the exact number is not on record here.

Broadly, the IC50 is the concentration that gives 50% inhibition.

`O=C(Cn1c(-c2ccc(OCc3ccccc3)cc2)c(C2CCCCC2)c2sc(C(=O)O)cc21)Nc1ccc(N2CCOCC2)cc1` [Example 51, 5-(4-benzyloxyphenyl)-6-cyclohexyl-4-[(4-morpholinophenylcarbamoyl)methyl]-4H-thieno[3,2-b]pyrrole-2-carboxylic acid hydrochloride]: the IC50 in assay [1] and in assay [2] was under 0.1 µM throughout.
As for `O=C(O)c1cc2nc(-c3ccc(OCc4cc(N5CCCC5=O)ccc4N4CCOCC4)cc3)n(C3CCCCC3)c2s1` [Example 5, 3-cyclohexyl-2-{4-[2-morpholino-5-(2-oxopyrrolidin-1-yl)benzyloxy]phenyl}-3H-thieno[2,3-d]imidazole-5-carboxylic acid], the IC50 in assay [1] and in assay [2] was 0.1 to 1 µM in each case.
`O=C(O)c1cc2c(s1)c(C1CCCCC1)c(-c1ccc(OCc3ccccc3)cc1)n2CC(=O)N1CCC(N2CCCCC2)CC1` [Example 54, 5-(4-benzyloxyphenyl)-4-[2-(1,4′-bipiperidinyl-1′-yl)-2-oxoethyl]-6-cyclohexyl-4H-thieno[3,2-b]pyrrole-2-carboxylic acid hydrochloride]: the IC50 in assay [1] and in assay [2] was under 0.1 µM each time.
For `CN(C)C(=O)Cn1c(-c2ccc(OC3CCCN(C(=O)OC(C)(C)C)C3)cc2)c(C2CCCCC2)c2sc(C(=O)O)cc21` (stereo not shown) [Example 37, 5-[4-(1-tert-butoxycarbonylpiperidin-3-yloxy)phenyl]-6-cyclohexyl-4-dimethylcarbamoylmethyl-4H-thieno[3,2-b]pyrrole-2-carboxylic acid], the IC50 in assay [1] and in assay [2] was under 0.1 µM in each case.
Take `Cn1c(-c2ccc(OCc3cc(S(C)(=O)=O)ccc3N3CCOCC3)cc2)c(C2CCCCC2)c2sc(C(=O)O)cc21` [Example 23, 6-cyclohexyl-5-[4-(5-methanesulfonyl-2-morpholinobenzyloxy)phenyl]-4-methyl-4H-thieno[3,2-b]pyrrole-2-carboxylic acid hydrochloride]: the IC50 in assay [1] and in assay [2] was under 0.1 µM in each case.
As to `CN(C)CCn1c(-c2ccc(OCc3ccccc3)cc2)c(C2CCCCC2)c2sc(C(=O)O)cc21` [Example 46, 5-(4-benzyloxyphenyl)-6-cyclohexyl-4-(2-dimethylaminoethyl)-4H-thieno[3,2-b]pyrrole-2-carboxylic acid], the IC50 in assay [1] and in assay [2] was 0.1 to 1 µM in each case.
For the compound `COc1ccc(-c2c(C3CCCCC3)c3sc(C(=O)O)cc3n2CC(=O)NCc2ccccc2)cc1` [Example 32, 4-(benzylcarbamoylmethyl)-6-cyclohexyl-5-(4-methoxyphenyl)-4H-thieno[3,2-b]pyrrole-2-carboxylic acid], the IC50 in assay [1] and in assay [2] was under 0.1 µM throughout.
Take `CC(C)C(=O)Nc1ccc(N2CCOCC2)c(COc2ccc(-c3c(C4CCCCC4)c4sc(C(=O)O)cc4n3C)cc2)c1` [Example 29, 6-cyclohexyl-5-[4-(5-isobutyrylamino-2-morpholinobenzyloxy)phenyl]-4-methyl-4H-thieno[3,2-b]pyrrole-2-carboxylic acid hydrochloride]: the IC50 in assay [1] and in assay [2] was under 0.1 µM in each case.
For `O=C(O)c1cc2c(s1)c(C1CCCCC1)c(-c1ccc(OCc3ccccc3)cc1)n2CC1CCCCC1` [Example 48, 5-(4-benzyloxyphenyl)-6-cyclohexyl-4-cyclohexylmethyl-4H-thieno[3,2-b]pyrrole-2-carboxylic acid], the IC50 in assay [1] and in assay [2] was 0.1 to 1 µM each time.
As to `O=C(O)c1cc2c(s1)c(C1CCCCC1)c(-c1ccc(OCc3ccccc3)cc1)n2CCN1CCC(N2CCCCC2)CC1` [Example 55, 5-(4-benzyloxyphenyl)-4-[2-(1,4′-bipiperidinyl-1′-yl)ethyl]-6-cyclohexyl-4H-thieno[3,2-b]pyrrole-2-carboxylic acid dihydrochloride], the IC50 in assay [1] and in assay [2] was 0.1 to 1 µM in each case.
`COc1ccc(-c2c(C3CCCCC3)c3sc(C(=O)O)cc3n2CC(=O)NC(C)(C)C)cc1` [Example 33, 4-(tert-butylcarbamoylmethyl)-6-cyclohexyl-5-(4-methoxyphenyl)-4H-thieno[3,2-b]pyrrole-2-carboxylic acid]: the IC50 in assay [1] is under 0.1 µM; in assay [2], 0.1 to 1 µM.

Source of the values: US20090036444A1, “5-5-Membered fused heterocyclic compound and use thereof as HCV polymerase inhibitor” (priority 2003, published 2009).
